Results reported in ChEMBL document CHEMBL4732190, “Identification of Potent and Long-Acting Single-Chain Peptide Mimetics of Human Relaxin-2 for Cardiovascular Diseases” (J Med Chem, 2021).
Values after ≈ are worked out from the molar mass of the structure shown. *1 amine or outer side, *2 acyl side, *3 side chain or, on linkers, in order; H or OH if unused. Where a SMILES comes first, the peptide text is derived from it. [ ]: non-standard residue; d: D form. The star is where a group is joined. X5 = CCCCCCCCCCCCCCCCCCC(=O)[C@H](CCC(=O)O)NC(=O)[C@H](CCC(=O)O)NC(=O)[C@H](CCC(=O)O)NC(=O)[C@H](CCCCN)NC(=O)COCC(=O)NCCCOCCOCCOCCCNC(=O)COCC(=O)NCCCOCCOCCOCCCNC(=O)COCC(=O)NCCCOCCOCCOCCCN*; PEG11 = NCCOCCOCCOCCOCCOCCOCCOCCOCCOCCOCCOCCC(=O)O; X3 = CCCCCCCCCCCCCCCCCCC(=O)[C@H](CCC(N)=O)N*; X6 = CCCCCCCCCCCCCCCCCCC(=O)[C@H](CCC(=O)O)N*; X2 = CCCCCCCCCCCCCCCCCC(=O)[C@H](CCC(N)=O)N*; β2hAla(2S) = C[C@@H](CN[*:1])C(=O)[*:2]; hLys = NCCCCC[C@H](N)C(=O)O; Nle = CCCC[C@H](N)C(=O)O; AEEA = NCCOCCOCC(=O)O

Tests used:
Relaxin receptor 1 [1] = target: T1, Relaxin receptor 1 (Homo sapiens, UniProt Q9HBX9); assay: Agonist activity at RXFP1 endogenously expressed in human OVCAR-5 cells assessed as increase in IBMX-induced cAMP accumulation pretreated with IBMX for 40 mins followed by compound addition and measured after 30 mins in presence of 2 % HSA by HTRF assay; assay type: functional, cell-based
T1 sequence (Q9HBX9 whole entry): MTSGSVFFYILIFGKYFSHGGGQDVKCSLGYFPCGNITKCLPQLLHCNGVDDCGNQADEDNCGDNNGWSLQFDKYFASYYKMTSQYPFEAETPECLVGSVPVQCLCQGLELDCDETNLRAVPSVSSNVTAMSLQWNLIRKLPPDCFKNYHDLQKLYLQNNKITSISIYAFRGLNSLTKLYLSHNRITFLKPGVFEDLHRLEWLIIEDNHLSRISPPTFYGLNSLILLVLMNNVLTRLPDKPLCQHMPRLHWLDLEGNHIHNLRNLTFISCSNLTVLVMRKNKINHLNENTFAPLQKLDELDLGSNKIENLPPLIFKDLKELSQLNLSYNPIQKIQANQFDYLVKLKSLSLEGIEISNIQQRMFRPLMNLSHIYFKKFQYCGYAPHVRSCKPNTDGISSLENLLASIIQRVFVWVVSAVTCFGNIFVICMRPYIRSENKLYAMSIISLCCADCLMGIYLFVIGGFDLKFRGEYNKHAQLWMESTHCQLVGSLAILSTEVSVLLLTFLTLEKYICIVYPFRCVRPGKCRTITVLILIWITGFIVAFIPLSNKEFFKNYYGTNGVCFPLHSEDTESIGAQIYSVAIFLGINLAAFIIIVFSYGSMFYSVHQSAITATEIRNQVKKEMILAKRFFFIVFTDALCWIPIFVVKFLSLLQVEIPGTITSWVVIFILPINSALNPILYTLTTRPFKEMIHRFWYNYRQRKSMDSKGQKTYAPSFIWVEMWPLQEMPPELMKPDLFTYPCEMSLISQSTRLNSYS

[2] = target: T2, Relaxin receptor 1 (Homo sapiens) (UniProt Q9HBX9); assay: Selectivity ratio of EC50 for agonist activity at RXFP1 endogenously expressed in human OVCAR-5 cells in presence of 2 % HSA to EC50 for agonist activity at RXFP1 endogenously expressed in human OVCAR-5 cells in absence of HSA; assay type: cell-based
T2 sequence (whole entry): T1 sequence (Q9HBX9 whole entry)

[3] = target: T2, Relaxin receptor 1 (Homo sapiens); assay: Agonist activity at RXFP1 endogenously expressed in human OVCAR-5 cells assessed as increase in IBMX-induced cAMP accumulation pretreated with IBMX for 40 mins followed by compound addition and measured after 30 mins by HTRF assay relative to relaxin; assay type: functional, cell-based; conditions: filed as agonist
[4] = Half life in Sprague-Dawley rat at 1 mg/kg, iv measured upto 72 hrs by LC-HRMS analysis; assay type: ADME, organism-based; conditions: in vivo
[5] = target: T2, Relaxin receptor 1 (Homo sapiens); assay: Agonist activity at RXFP1 endogenously expressed in human OVCAR-5 cells assessed as increase in IBMX-induced cAMP accumulation pretreated with IBMX for 40 mins followed by compound addition and measured after 30 mins in presence of 2 % HSA by HTRF assay relative to control; assay type: functional, cell-based; conditions: filed as agonist
Relaxin receptor 1 [6] = target: T1, Relaxin receptor 1; assay: Agonist activity at RXFP1 endogenously expressed in human OVCAR-5 cells assessed as increase in IBMX-induced cAMP accumulation pretreated with IBMX for 40 mins followed by compound addition and measured after 30 mins by HTRF assay; assay type: functional, cell-based
[7] = Positive chronotropic activity in pithed Sprague-Dawley rat assessed as increase in heart rate at 20 to 1000 mg/kg, iv administered as bolus dose measured after 60 mins post dose; assay type: ADME, organism-based; conditions: in vivo, 1 h, dose 20-1000 mg/kg
[8] = Aqueous solubility of compound in phosphate buffer at pH 7.4 measured after 24 hrs by UPLC analysis; assay type: physicochemical
[9] = Positive chronotropic activity in pithed Sprague-Dawley rat assessed as increase in heart rate at 1000 mg/kg, iv administered as bolus dose measured after 60 mins post dose; assay type: ADME, organism-based; conditions: in vivo, 1 h
[10] = Stability in human plasma assessed as parent compound remaining level at 5 uM remaining after 4 hrs; assay type: ADME, cell-free; conditions: read-out: Stabilty
[11] = Stability in rat plasma assessed as parent compound remaining level at 5 uM remaining after 4 hrs; assay type: ADME, cell-free; conditions: read-out: Stabilty
[12] = Bioavailability in Sprague-Dawley rat at 3 mg/kg, sc measured upto 72 hrs by LC-HRMS analysis; assay type: ADME, organism-based; conditions: in vivo

Row | Compound | EC50 (Relaxin receptor 1 [1]) | Ratio EC50 [2] | Emax [3] | half-life [4] | Emax [5] | EC50 (Relaxin receptor 1 [6]) | solubility at 24 h [8] | remaining at 4 h, 5 µM [10] | remaining at 4 h, 5 µM [11] | bioavailability [12] | Activity [7] | Emin [9]
1 | CCCCCCCCCCCCCCCCCCC(=O)[C@H](CCC(=O)O)NC(=O)[C@H](CCC(=O)O)NC(=O)[C@H](CCC(=O)O)NC(=O)[C@H](CCCCN)NC(=O)COCC(=O)NCCCOCCOCCOCCCNC(=O)COCC(=O)NCCCOCCOCCOCCCNC(=O)COCC(=O)NCCCOCCOCCOCCCNC(=O)[C@H](CCCCCNC(C)=O)NC(=O)[C@H](CCCCN)NC(=O)[C@H](CCCCN)NC(=O)[C@H](CCCNC(=N)N)NC(=O)[C@@H](C)CNC(=O)[C@H](CO)NC(=O)[C@H](Cc1c[nH]c2ccccc12)NC(=O)[C@@H](NC(=O)[C@H](CO)NC(=O)[C@H](CCCCCNC(C)=O)NC(=O)[C@H](CCCCN)NC(=O)[C@H](CCCC)NC(=O)[C@H](CCSC)NC(=O)CNC(=O)[C@H](CCC(=O)O)NC(=O)[C@@H](C)CNC(=O)[C@@H](C)CNC(=O)[C@@H](NC(=O)[C@H](CCCCCNC(C)=O)NC(=O)[C@H](CCCCN)NC(=O)[C@H](C)NC(=O)[C@H](CCCNC(=N)N)NC(=O)[C@@H](NC(=O)[C@H](CCCCN)NC(=O)[C@H](CCC(=O)O)NC(=O)[C@H](CCCNC(=N)N)NC(=O)[C@H](CCC(=O)O)NC(=O)CNC(=O)[C@H](CCC(=O)O)NC(=O)[C@H](CC(C)C)NC(C)=O)C(C)C)[C@@H](C)CC)[C@@H](C)O (Ac-LEGEREKVRAK[hLys](Ac)I[β2hAla(2S)][β2hAla(2S)]EGM[Nle]K[hLys](Ac)STWS[β2hAla(2S)]RKK[hLys](Ac)-X5) | 24.5 nM | 61 | 88% | 3.96 h | 85% | 0.4 nM |  |  |  |  |  | 
2 | CCCCCCCCCCCCCCCCCC(=O)[C@H](CCC(N)=O)NC(=O)[C@H](CCC(=O)O)NC(=O)[C@H](CCC(=O)O)NC(=O)[C@H](CCCCN)NC(=O)COCCOCCNC(=O)COCCOCCNC(=O)COCCOCCNC(=O)[C@H](CCCCCNC(C)=O)NC(=O)[C@H](CCCCN)NC(=O)[C@H](CCCCN)NC(=O)[C@H](CCCNC(=N)N)NC(=O)[C@@H](C)CNC(=O)[C@H](CO)NC(=O)[C@H](Cc1c[nH]c2ccccc12)NC(=O)[C@@H](NC(=O)[C@H](CO)NC(=O)[C@H](CCCCCNC(C)=O)NC(=O)[C@H](CCCCN)NC(=O)[C@H](CCCC)NC(=O)[C@H](CCSC)NC(=O)CNC(=O)[C@H](CCC(=O)O)NC(=O)[C@@H](C)CNC(=O)[C@@H](C)CNC(=O)[C@@H](NC(=O)[C@H](CCCCCNC(C)=O)NC(=O)[C@H](CCCCN)NC(=O)[C@H](C)NC(=O)[C@H](CCCNC(=N)N)NC(=O)[C@@H](NC(=O)[C@H](CCCCN)NC(=O)[C@H](CCC(=O)O)NC(=O)[C@H](CCCNC(=N)N)NC(=O)[C@H](CCC(=O)O)NC(=O)CNC(=O)[C@H](CCC(=O)O)NC(=O)[C@H](CC(C)C)NC(C)=O)C(C)C)[C@@H](C)CC)[C@@H](C)O (Ac-LEGEREKVRAK[hLys](Ac)I[β2hAla(2S)][β2hAla(2S)]EGM[Nle]K[hLys](Ac)STWS[β2hAla(2S)]RKK[hLys](Ac)[AEEA][AEEA][AEEA]KEE-X2) | 18.4 nM | 92 | 89% | 3.9 h | 89% | 0.2 nM | 11400 µg/mL (≈ 2330 µM) | 111% | 114% |  | Dose-dependent effect | 26%
3 | CCCCCCCCCCCCCCCCCCC(=O)[C@H](CCC(=O)O)NC(=O)[C@H](CCC(=O)O)NC(=O)[C@H](CCC(=O)O)NC(=O)[C@H](CCCCN)NC(=O)COCCOCCNC(=O)COCCOCCNC(=O)COCCOCCNC(=O)[C@H](CCCCCNC(C)=O)NC(=O)[C@H](CCCCN)NC(=O)[C@H](CCCCN)NC(=O)[C@H](CCCNC(=N)N)NC(=O)[C@@H](C)CNC(=O)[C@H](CO)NC(=O)[C@H](Cc1c[nH]c2ccccc12)NC(=O)[C@@H](NC(=O)[C@H](CO)NC(=O)[C@H](CCCCCNC(C)=O)NC(=O)[C@H](CCCCN)NC(=O)[C@H](CCCC)NC(=O)[C@H](CCSC)NC(=O)CNC(=O)[C@H](CCC(=O)O)NC(=O)[C@@H](C)CNC(=O)[C@@H](C)CNC(=O)[C@@H](NC(=O)[C@H](CCCCCNC(C)=O)NC(=O)[C@H](CCCCN)NC(=O)[C@H](C)NC(=O)[C@H](CCCNC(=N)N)NC(=O)[C@@H](NC(=O)[C@H](CCCCN)NC(=O)[C@H](CCC(=O)O)NC(=O)[C@H](CCCNC(=N)N)NC(=O)[C@H](CCC(=O)O)NC(=O)CNC(=O)[C@H](CCC(=O)O)NC(=O)[C@H](CC(C)C)NC(C)=O)C(C)C)[C@@H](C)CC)[C@@H](C)O (Ac-LEGEREKVRAK[hLys](Ac)I[β2hAla(2S)][β2hAla(2S)]EGM[Nle]K[hLys](Ac)STWS[β2hAla(2S)]RKK[hLys](Ac)[AEEA][AEEA][AEEA]KEE-X6) | 19.8 nM | 198 | 88% | 3.4 h | 82% | 0.1 nM |  |  |  |  |  | 

Second part, led by results:

Row | EC50 (Relaxin receptor 1 [1]) | Ratio EC50 [2] | Emax [3] | half-life [4] | Emax [5] | EC50 (Relaxin receptor 1 [6]) | solubility at 24 h [8] | remaining at 4 h, 5 µM [10] | remaining at 4 h, 5 µM [11] | bioavailability [12] | Compound | Activity [7] | Emin [9]
4 | 9 nM | 15 | 95% | 43 h | 84% | 0.6 nM | 5400 µg/mL (≈ 1570 µM) | 93% | 80% |  | CCCCCCCCCCCCCCCCCCC(=O)[C@H](CCC(N)=O)NC(=O)[C@H](CCC(=O)O)NC(=O)[C@H](CCC(=O)O)NC(=O)[C@H](CCCCN)NC(=O)CCOCCOCCOCCOCCOCCOCCOCCOCCOCCOCCOCCNC(=O)[C@H](CCCCCNC(C)=O)NC(=O)[C@H](CCCCN)NC(=O)[C@@H](C)CNC(=O)[C@@H](C)CNC(=O)[C@@H](NC(=O)[C@H](CCCCCNC(C)=O)NC(=O)[C@H](CCCCN)NC(=O)[C@H](C)NC(=O)[C@H](CCCNC(=N)N)NC(=O)[C@@H](NC(=O)[C@H](CCCCN)NC(=O)[C@H](CCC(=O)O)NC(=O)[C@H](CCCNC(=N)N)NC(=O)[C@H](CCC(=O)O)NC(=O)CNC(=O)[C@H](CCC(=O)O)NC(=O)[C@H](CC(C)C)NC(C)=O)C(C)C)[C@@H](C)CC (Ac-LEGEREKVRAK[hLys](Ac)I[β2hAla(2S)][β2hAla(2S)]K[hLys](Ac)[PEG11]KEE-X3) |  | 
5 | 31 nM | 31 | 79% | 4.8 h | 80% | 1 nM |  |  |  | 100% | CCCCCCCCCCCCCCCCCC(=O)[C@H](CCC(N)=O)NC(=O)[C@H](CCC(=O)O)NC(=O)[C@H](CCC(=O)O)NC(=O)[C@H](CCCCN)NC(=O)CCOCCOCCOCCOCCOCCOCCOCCOCCOCCOCCOCCNC(=O)[C@H](CCCCN)NC(=O)[C@H](CCCNC(=N)N)NC(=O)[C@@H](C)CNC(=O)[C@H](CO)NC(=O)[C@H](Cc1c[nH]c2ccccc12)NC(=O)[C@@H](NC(=O)[C@H](CO)NC(=O)[C@H](CCCC)NC(=O)[C@H](CCSC)NC(=O)CNC(=O)[C@H](CCC(=O)O)NC(=O)[C@@H](C)CNC(=O)[C@@H](C)CNC(=O)[C@@H](NC(=O)[C@H](CCC(N)=O)NC(=O)[C@H](C)NC(=O)[C@H](CCCNC(=N)N)NC(=O)[C@@H](NC(=O)[C@H](CCCCN)NC(=O)[C@H](CCC(=O)O)NC(=O)[C@H](CCCNC(=N)N)NC(=O)[C@H](CCC(=O)O)NC(=O)CNC(=O)[C@H](CCC(=O)O)NC(=O)[C@H](CC(C)C)NC(C)=O)C(C)C)[C@@H](C)CC)[C@@H](C)O (Ac-LEGEREKVRAQI[β2hAla(2S)][β2hAla(2S)]EGM[Nle]STWS[β2hAla(2S)]RK[PEG11]KEE-X2) |  | 
